Assay results taken from patent publication US10760052B2, “Method of inhibiting tau phosphorylation” (priority 2012, dated 2020).

Molecular target: T1, mu opiate receptor (MOR) (Rattus norvegicus, UniProt P33535)
T1 construct: from tissue; host or cells: striatum (membrane preparation)
Type: biochemical
Settings: for Concentration of FLNA-Binding Compound as Agonist 0.1 μM / Concentration of FLNA-Binding Compound as Agonist 1 μM / Concentration of FLNA-Binding Compound as Agonist 1 μM + BFNA: [35S]GTPγS binding to Gαo in striatal membranes; for Concentration of FLNA-Binding Compound as Agonist 0.1 μM: compound 0.1 μM; for Concentration of FLNA-Binding Compound as Agonist 1 μM: compound 1 μM; for Concentration of FLNA-Binding Compound as Agonist 1 μM + BFNA: compound 1 μM plus 1 μM β-funaltrexamine (MOR antagonist)

T1 sequence (P33535 whole entry): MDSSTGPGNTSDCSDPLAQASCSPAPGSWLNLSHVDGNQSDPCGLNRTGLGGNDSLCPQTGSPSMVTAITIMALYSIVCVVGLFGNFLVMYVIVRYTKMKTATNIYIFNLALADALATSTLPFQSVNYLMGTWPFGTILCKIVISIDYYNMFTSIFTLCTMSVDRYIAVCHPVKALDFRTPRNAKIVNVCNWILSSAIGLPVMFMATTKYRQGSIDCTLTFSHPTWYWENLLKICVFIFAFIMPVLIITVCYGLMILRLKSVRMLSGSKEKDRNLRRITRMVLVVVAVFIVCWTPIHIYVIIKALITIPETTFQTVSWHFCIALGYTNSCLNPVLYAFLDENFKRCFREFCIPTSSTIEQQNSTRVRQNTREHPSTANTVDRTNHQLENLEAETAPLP

COc1ccc(C(=O)CC2c3c(cc4c(c3OC)OCO4)CC[N+]2(C)C)cc1 (stereo not drawn) [Compound B0024]
% DAMGO (0.1 μM): 93.2% | % DAMGO (1 μM): 116.7% | % DAMGO + BFNA: 58.2% | Concentration of FLNA-Binding Compound as Agonist 0.1 μM: 155.8% | Concentration of FLNA-Binding Compound as Agonist 1 μM: 285.9% | Concentration of FLNA-Binding Compound as Agonist 1 μM + BFNA: 20.2%

COc1ccccc1C(=O)CC1c2c(cc3c(c2OC)OCO3)CC[N+]1(C)C (stereo not drawn) [Compound B0025]
% DAMGO (0.1 μM): 96.3% | % DAMGO (1 μM): 86.8% | % DAMGO + BFNA: 211.8% | Concentration of FLNA-Binding Compound as Agonist 0.1 μM: 159.6% | Concentration of FLNA-Binding Compound as Agonist 1 μM: 234.6% | Concentration of FLNA-Binding Compound as Agonist 1 μM + BFNA: 137.7%

COc1ccc(C(=O)CC2c3c(cc4c(c3OC)OCO4)CC[N+]2(C)C)cc1OC (stereo not drawn) [Compound B0026]
% DAMGO (0.1 μM): 88.8% | % DAMGO (1 μM): 87.4% | % DAMGO + BFNA: 55.3% | Concentration of FLNA-Binding Compound as Agonist 0.1 μM: 152.0% | Concentration of FLNA-Binding Compound as Agonist 1 μM: 233.3% | Concentration of FLNA-Binding Compound as Agonist 1 μM + BFNA: 28.8%

COc1ccc(C(=O)CC2c3c(cc4c(c3OC)OCO4)CC[N+]2(C)C)c(F)c1 (stereo not drawn) [Compound B0027]
% DAMGO (0.1 μM): 82.3% | % DAMGO (1 μM): 100.0% | % DAMGO + BFNA: 41.5% | Concentration of FLNA-Binding Compound as Agonist 0.1 μM: 140.9% | Concentration of FLNA-Binding Compound as Agonist 1 μM: 266.9% | Concentration of FLNA-Binding Compound as Agonist 1 μM + BFNA: 21.6%

COc1c2c(cc3c1C(CC(=O)CCc1ccc(O)cc1)[N+](C)(C)CC3)OCO2 (stereo not drawn) [Compound B0028]
% DAMGO (0.1 μM): 103.5% | % DAMGO (1 μM): 131.0% | % DAMGO + BFNA: 125.3% | Concentration of FLNA-Binding Compound as Agonist 0.1 μM: 199.1% | Concentration of FLNA-Binding Compound as Agonist 1 μM: 357.7% | Concentration of FLNA-Binding Compound as Agonist 1 μM + BFNA: 55.0%

COc1ccc(CC(=O)CC2c3c(cc4c(c3OC)OCO4)CC[N+]2(C)C)c(OC)c1 (stereo not drawn) [Compound B0029]
% DAMGO (0.1 μM): 89.4% | % DAMGO (1 μM): 77.0% | % DAMGO + BFNA: 40.1% | Concentration of FLNA-Binding Compound as Agonist 0.1 μM: 171.9% | Concentration of FLNA-Binding Compound as Agonist 1 μM: 210.3% | Concentration of FLNA-Binding Compound as Agonist 1 μM + BFNA: 17.6%

COc1ccccc1CC(O)CC1c2c(cc3c(c2OC)OCO3)CCN1C (stereo not drawn) [Compound B0030]
% DAMGO (0.1 μM): 62.6% | % DAMGO (1 μM): 103.4% | % DAMGO + BFNA: 172.9% | Concentration of FLNA-Binding Compound as Agonist 0.1 μM: 107.2% | Concentration of FLNA-Binding Compound as Agonist 1 μM: 276.1% | Concentration of FLNA-Binding Compound as Agonist 1 μM + BFNA: 90.1%

COc1c2c(cc3c1C(CC(=O)Cc1ccccc1C)[N+](C)(C)CC3)OCO2 (stereo not drawn) [Compound B0031]
% DAMGO (0.1 μM): 109.6% | % DAMGO (1 μM): 99.6% | % DAMGO + BFNA: 65.6% | Concentration of FLNA-Binding Compound as Agonist 0.1 μM: 210.8% | Concentration of FLNA-Binding Compound as Agonist 1 μM: 272.0% | Concentration of FLNA-Binding Compound as Agonist 1 μM + BFNA: 28.8%

COc1ccccc1CC(O)CC1c2c(cc3c(c2OC)OCO3)CC[N+]1(C)C (stereo not drawn) [Compound B0032]
% DAMGO (0.1 μM): 115.0% | % DAMGO (1 μM): 109.0% | % DAMGO + BFNA: 35.5% | Concentration of FLNA-Binding Compound as Agonist 0.1 μM: 221.1% | Concentration of FLNA-Binding Compound as Agonist 1 μM: 297.7% | Concentration of FLNA-Binding Compound as Agonist 1 μM + BFNA: 15.6%

COc1ccc(C(=O)CC2c3c(cc4c(c3OC)OCO4)CC[N+]2(C)C)c(O)c1 (stereo not drawn) [Compound B0033]
% DAMGO (0.1 μM): 77.6% | % DAMGO (1 μM): 69.2% | % DAMGO + BFNA: 95.4% | Concentration of FLNA-Binding Compound as Agonist 0.1 μM: 149.3% | Concentration of FLNA-Binding Compound as Agonist 1 μM: 188.9% | Concentration of FLNA-Binding Compound as Agonist 1 μM + BFNA: 41.9%

COc1cccc(CCC(=O)CC2c3c(cc4c(c3OC)OCO4)CC[N+]2(C)C)c1 (stereo not drawn) [Compound B0034]
% DAMGO (0.1 μM): 71.6% | % DAMGO (1 μM): 88.1% | % DAMGO + BFNA: 80.2% | Concentration of FLNA-Binding Compound as Agonist 0.1 μM: 122.5% | Concentration of FLNA-Binding Compound as Agonist 1 μM: 235.2% | Concentration of FLNA-Binding Compound as Agonist 1 μM + BFNA: 41.8%

COc1cc(OC)cc(C(=O)CC2c3c(cc4c(c3OC)OCO4)CC[N+]2(C)C)c1 (stereo not drawn) [Compound B0035]
% DAMGO (0.1 μM): 109.8% | % DAMGO (1 μM): 93.2% | % DAMGO + BFNA: 142.4% | Concentration of FLNA-Binding Compound as Agonist 0.1 μM: 188.0% | Concentration of FLNA-Binding Compound as Agonist 1 μM: 248.7% | Concentration of FLNA-Binding Compound as Agonist 1 μM + BFNA: 74.2%

COc1cccc(OC)c1CC(=O)CC1c2c(cc3c(c2OC)OCO3)CC[N+]1(C)C (stereo not drawn) [Compound B0036]
% DAMGO (0.1 μM): 39.2% | % DAMGO (1 μM): 52.1% | % DAMGO + BFNA: 199.7% | Concentration of FLNA-Binding Compound as Agonist 0.1 μM: 61.4% | Concentration of FLNA-Binding Compound as Agonist 1 μM: 120.6% | Concentration of FLNA-Binding Compound as Agonist 1 μM + BFNA: 65.1%

COc1cc(C(=O)CC2c3c(cc4c(c3OC)OCO4)CC[N+]2(C)C)cc(OC)c1OC (stereo not drawn) [Compound B0037]
% DAMGO (0.1 μM): 76.5% | % DAMGO (1 μM): 80.4% | % DAMGO + BFNA: 325.8% | Concentration of FLNA-Binding Compound as Agonist 0.1 μM: 119.8% | Concentration of FLNA-Binding Compound as Agonist 1 μM: 186.0% | Concentration of FLNA-Binding Compound as Agonist 1 μM + BFNA: 106.2%

COc1cccc(CC(=O)CC2c3c(cc4c(c3OC)OCO4)CC[N+]2(C)C)c1OC (stereo not drawn) [Compound B0038]
% DAMGO (0.1 μM): 94.2% | % DAMGO (1 μM): 88.7% | % DAMGO + BFNA: 359.2% | Concentration of FLNA-Binding Compound as Agonist 0.1 μM: 147.5% | Concentration of FLNA-Binding Compound as Agonist 1 μM: 205.5% | Concentration of FLNA-Binding Compound as Agonist 1 μM + BFNA: 117.1%

COCOc1ccc(CCC(=O)CC2c3c(cc4c(c3OC)OCO4)CC[N+]2(C)C)cc1 (stereo not drawn) [Compound B0040]
% DAMGO (0.1 μM): 93.2% | % DAMGO (1 μM): 105.1% | % DAMGO + BFNA: 169.6% | Concentration of FLNA-Binding Compound as Agonist 0.1 μM: 146.0% | Concentration of FLNA-Binding Compound as Agonist 1 μM: 243.3% | Concentration of FLNA-Binding Compound as Agonist 1 μM + BFNA: 55.3%

COCOc1ccc(C(=O)CC2c3c(cc4c(c3OC)OCO4)CC[N+]2(C)C)cc1C (stereo not drawn) [Compound B0041]
% DAMGO (0.1 μM): 39.3% | % DAMGO (1 μM): 47.2% | % DAMGO + BFNA: 128.5% | Concentration of FLNA-Binding Compound as Agonist 0.1 μM: 61.6% | Concentration of FLNA-Binding Compound as Agonist 1 μM: 109.3% | Concentration of FLNA-Binding Compound as Agonist 1 μM + BFNA: 41.9%

COc1ccc(CCC(=O)CC2c3c(cc4c(c3OC)OCO4)CC[N+]2(C)C)cc1OC (stereo not drawn) [Compound B0042]
% DAMGO (0.1 μM): 39.6% | % DAMGO (1 μM): 42.3% | % DAMGO + BFNA: 163.9% | Concentration of FLNA-Binding Compound as Agonist 0.1 μM: 69.9% | Concentration of FLNA-Binding Compound as Agonist 1 μM: 107.5% | Concentration of FLNA-Binding Compound as Agonist 1 μM + BFNA: 43.1%

COc1ccc(CCC(=O)CC2c3c(cc4c(c3OC)OCO4)CC[N+]2(C)C)c(OC)c1 (stereo not drawn) [Compound B0043]
% DAMGO (0.1 μM): 42.4% | % DAMGO (1 μM): 97.6% | % DAMGO + BFNA: 632.7% | Concentration of FLNA-Binding Compound as Agonist 0.1 μM: 74.8% | Concentration of FLNA-Binding Compound as Agonist 1 μM: 248.1% | Concentration of FLNA-Binding Compound as Agonist 1 μM + BFNA: 166.4%

COc1ccc(OC)c(CCC(=O)CC2c3c(cc4c(c3OC)OCO4)CC[N+]2(C)C)c1 (stereo not drawn) [Compound B0044]
% DAMGO (0.1 μM): 49.4% | % DAMGO (1 μM): 66.9% | % DAMGO + BFNA: 511.8% | Concentration of FLNA-Binding Compound as Agonist 0.1 μM: 87.3% | Concentration of FLNA-Binding Compound as Agonist 1 μM: 170.0% | Concentration of FLNA-Binding Compound as Agonist 1 μM + BFNA: 134.6%

COc1ccccc1CCC(=O)CC1c2c(cc3c(c2OC)OCO3)CC[N+]1(C)C (stereo not drawn) [Compound B0045]
% DAMGO (0.1 μM): 82.6% | % DAMGO (1 μM): 83.4% | % DAMGO + BFNA: 257.1% | Concentration of FLNA-Binding Compound as Agonist 0.1 μM: 129.3% | Concentration of FLNA-Binding Compound as Agonist 1 μM: 193.1% | Concentration of FLNA-Binding Compound as Agonist 1 μM + BFNA: 83.8%

COc1ccc(CCC(=O)CC2c3c(cc4c(c3OC)OCO4)CCN2C)cc1 (stereo not drawn) [Compound B0047]
% DAMGO (0.1 μM): 106.3% | % DAMGO (1 μM): 92.6% | % DAMGO + BFNA: 260.1% | Concentration of FLNA-Binding Compound as Agonist 0.1 μM: 187.8% | Concentration of FLNA-Binding Compound as Agonist 1 μM: 235.6% | Concentration of FLNA-Binding Compound as Agonist 1 μM + BFNA: 68.4%

COc1ccc(CCC(O)CC2c3c(cc4c(c3OC)OCO4)CCN2C)cc1 (stereo not drawn) [Compound B0048]
% DAMGO (0.1 μM): 104.8% | % DAMGO (1 μM): 87.8% | % DAMGO + BFNA: 298.5% | Concentration of FLNA-Binding Compound as Agonist 0.1 μM: 185.1% | Concentration of FLNA-Binding Compound as Agonist 1 μM: 223.4% | Concentration of FLNA-Binding Compound as Agonist 1 μM + BFNA: 78.5%
